Patent US12448400B2, “KRAS G12D modulating compounds” (priority 2023, dated 2025)
Like-named read-outs stand apart in the source and are kept apart here.

Columns and labels:
GP2D (KRAS G12D) cells = assay: 2D cell viability assay (CellTiter-Glo); format: cell-based; details: GP2D cells, 4 days, CellTiter-Glo luminescence, read-out: G12D 2D EC50
Procedure, shortened: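 GP2D (KRAS G12D) cells, 1000/well in RPMI + 10% FBS, were plated onto compound (1:3 DMSO series) and grown 4 days at 37 °C, 5% CO2 in 2D. CellTiter-Glo luminescence was read; EC50 is the concentration giving 50% signal decrease, from sigmoidal fit.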

GDP-loaded KRAS G12D = GDP-loaded KRAS G12D (Homo sapiens, UniProt P01116, G12D); assay: KRAS G12D (GDP) biochemical assay, TR-FRET probe displacement; format: binding; details: 0.5 nM enzyme, 30 min pre-incubation, 2 h incubation, TR-FRET ratio; read-out: G12D IC50
Procedure, shortened: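 Compound pre-incubated 30 min with GDP-loaded KRAS G12D in 50 mM Hepes pH 7.4, 150 mM NaCl, 5 mM MgCl2, 0.005% Tween-20, then Eu-streptavidin and TR-FRET probe added. After 2 h at room temperature, TR-FRET ratio read; IC50 is 50% ratio decrease, sigmoidal fit.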

[1] = Mouse oral cassette pharmacokinetics; format: in vivo, male CD-1 mice
Experimental: Mouse Oral Cassette Pharmacokinetics
Test compounds (1-3 compounds per cassette) were formulated in solution formulations (10 w/v % Captisol in 50 mM Citrate buffer) and administered orally at 30 mg-eq./kg each compound to a group of four male CD-1 mice. The test articles were administrated by oral gavage at a dose volume of 10 mL-eq/kg.
Blood samples were collected at 0.5, 1, 3, 6, 8, and 24 hours post dose into K2EDTA tubes and stored on wet ice until processed. Whole blood was processed to plasma by centrifugation (3500 rpm for 10 minutes at 5° C.) within 30 minutes of collection. Plasma samples were placed in Micronic 96 well tubes and stored at −80° C. until transferred. Plasma concentration of the test compounds was determined by LC-MS/MS. Pharmacokinetic parameters were estimated using non-compartment model analysis. The maximum observed concentration (Cmax) and area under the curve from time of dosing to last measured concentration (AUClast) were calculated and reported.

[2] = male, CD-1, mouse, in vivo, po, 30 mg/kg

Q: For “4-(((1S,4R,11R,14aR)-11-(8-ethynyl-7-fluoro-3-hydroxynaphthalen-1-yl)-10,12-difluoro-8-(((2R,7aS)-2-fluorotetrahydro-1H-pyrrolizin-7a(5H)-yl)methoxy)-1,2,3,4,5,13,14,14a-octahydro-1,4-epiminoazepino[1′,2′:1,71azepino[2,3,4-de]quinazolin-15-yl)methyl)-5-methyl-1,3-dioxol-2-one [Example 37]”, which EC50 (GP2D (KRAS G12D) cells) is on record?
A: The EC50 was 0.23 nM.

Q: What about the IC50 (GDP-loaded KRAS G12D) of the same molecule?
A: Its IC50 is 1 nM.

Q: What about the “Mouse Parent AUC” value ([1]; oral gavage, 30 mg-eq./kg each compound, cassette, plasma, AUClast of parent) of the same molecule?
A: Its value is 0.13 µM·h.

Q: With `Cc1cc(N)nc(-c2c(Cl)c3c4c(nc(OC[C@@]56CCCN5C[C@H](F)C6)nc4c2F)N2C[C@H]4CC[C@@H]([C@H]2CC3)N4Cc2oc(=O)oc2C)c1C(F)(F)F` (atropisomer, axis not shown; (aR)) [Example 3, 4-(((1R,4S,14aR)-11-((R)-6-amino-4-methyl-3-(trifluoromethyl)pyridin-2-yl)-12-chloro-10-fluoro-8-(((2R,7aS)-2-fluorotetrahydro-1H-pyrrolizin-7a(5H)-yl)methoxy)-1,2,3,4,5,13,14,14a-octahydro-1,4-epiminoazepino[1′,2′:1,7]azepino[2,3,4-de]quinazolin-15-yl)methyl)-5-methyl-1,3-dioxol-2-one] as the molecule, how does the EC50 (GP2D (KRAS G12D) cells; 96 h) read?
A: The EC50 was 0.92 nM.

Q: What about the IC50 (GDP-loaded KRAS G12D) of the same molecule?
A: The IC50 was 4.7 nM.

Q: What about the “Mouse Parent AUC” value [1, 2] of the same molecule?
A: The value was 5.7 µM·h.

Q: For `C#Cc1c(F)ccc2cccc(-c3nc4c5c(nc(OC[C@@]67CCCN6C[C@H](F)C7)nc5c3F)N3C[C@H]5CC[C@@H]([C@H]3CCC4)N5Cc3oc(=O)oc3C)c12` [Example 1, 4-(((6aR,7S,10R)-2-(8-ethynyl-7-fluoronaphthalen-1-yl)-1-fluoro-13-(((2R,7aS)-2-fluorotetrahydro-1H-pyrrolizin-7a(5H)-yl)methoxy)-5,6,6a,7,8,9,10,11-octahydro-4H-3,11a,12,14,15-pentaaza-7,10-methanocyclohepta[4,5]cycloocta[1,2,3-de]naphthalen-15-yl)methyl)-5-methyl-1,3-dioxol-2-one], which EC50 (GP2D (KRAS G12D) cells; 96 h) is on record?
A: Its EC50 is 5.8 nM.

Q: And the IC50 (GDP-loaded KRAS G12D)?
A: Its IC50 is 2.5 nM.

Q: What about the “Mouse Parent AUC” value [1, 2] of the same molecule?
A: The value was 3.6 µM·h.

Q: Which EC50 (GP2D (KRAS G12D) cells; 96 h) does the source give for `C#Cc1c(F)ccc2cc(O)cc(-c3nc4c5c(nc(OC[C@@]67CCCN6C[C@H](F)C7)nc5c3F)N3C[C@H]5CC[C@@H]([C@H]3CCC4)N5Cc3oc(=O)oc3C)c12` [Example 8, 4-(((6aR,7S,10R)-2-(8-ethynyl-7-fluoro-3-hydroxynaphthalen-1-yl)-1-fluoro-13-(((2R,7aS)-2-fluorotetrahydro-1H-pyrrolizin-7a(5H)-yl)methoxy)-5,6,6a,7,8,9,10,11-octahydro-4H-3,11a,12,14,15-pentaaza-7,10-methanocyclohepta[4,5]cycloocta[1,2,3-de]naphthalen-15-yl)methyl)-5-methyl-1,3-dioxol-2-one] here?
A: Its EC50 is 0.49 nM.

Q: And the IC50 (GDP-loaded KRAS G12D)?
A: The IC50 was 4.8 nM.

Q: And the “Mouse Parent AUC” value [1, 2]?
A: The value was 1.1 µM·h.

Q: What does the source list for `C#Cc1c(F)ccc2cc(O)cc(-c3nc4c5c(nc(OC[C@@]67CCCN6C[C@H](F)C7)nc5c3F)N3C[C@H]5CC[C@@H]([C@H]3CCC4)N5Cc3oc(=O)oc3C(C)(C)C)c12` [Example 9, 4-(tert-butyl)-5-(((6aR,7S,10R)-2-(8-ethynyl-7-fluoro-3-hydroxynaphthalen-1-yl)-1-fluoro-13-(((2R,7aS)-2-fluorotetrahydro-1H-pyrrolizin-7a(5H)-yl)methoxy)-5,6,6a,7,8,9,10,11-octahydro-4H-3,11a,12,14,15-pentaaza-7,10-methanocyclohepta[4,5]cycloocta[1,2,3-de]naphthalen-15-yl)methyl)-1,3-dioxol-2-one]?
A: EC50 (GP2D (KRAS G12D) cells; 96 h): 1.9 nM; IC50 (GDP-loaded KRAS G12D): 12 nM; Mouse Parent AUC [1, 2]: 0.16 µM·h

Q: For `C#Cc1c(F)ccc2cc(O)cc(-c3nc4c5c(nc(OC[C@@]67CCCN6C[C@H](F)C7)nc5c3F)N3C[C@H]5CC[C@@H]([C@H]3CCC4)N5Cc3oc(=O)oc3CCCCCCCC)c12` [Example 10, 4-(((6aR,7S,10R)-2-(8-ethynyl-7-fluoro-3-hydroxynaphthalen-1-yl)-1-fluoro-13-(((2R,7aS)-2-fluorotetrahydro-1H-pyrrolizin-7a(5H)-yl)methoxy)-5,6,6a,7,8,9,10,11-octahydro-4H-3,11a,12,14,15-pentaaza-7,10-methanocyclohepta[4,5]cycloocta[1,2,3-de]naphthalen-15-yl)methyl)-5-octyl-1,3-dioxol-2-one], which EC50 (GP2D (KRAS G12D) cells; 96 h) is on record?
A: The EC50 was 0.16 nM.

Q: What about the IC50 (GDP-loaded KRAS G12D) of the same molecule?
A: The IC50 was 7.8 nM.

Q: What about the “Mouse Parent AUC” value [1, 2] of the same molecule?
A: Its value is 0.44 µM·h.

Q: Which results are given for `C#Cc1c(F)ccc2cc(O)cc(-c3nc4c5c(nc(OC[C@@]67CCCN6C[C@H](F)C7)nc5c3F)N3C[C@H]5CC[C@@H]([C@H]3CC[C@H]4C)N5Cc3oc(=O)oc3C)c12` [Example 11, 4-(((4R,6aR,7S,10R)-2-(8-ethynyl-7-fluoro-3-hydroxynaphthalen-1-yl)-1-fluoro-13-(((2R,7aS)-2-fluorotetrahydro-1H-pyrrolizin-7a(5H)-yl)methoxy)-4-methyl-5,6,6a,7,8,9,10,11-octahydro-4H-3,11a,12,14,15-pentaaza-7,10-methanocyclohepta[4,5]cycloocta[1,2,3-de]naphthalen-15-yl)methyl)-5-methyl-1,3-dioxol-2-one]?
A: EC50 (GP2D (KRAS G12D) cells; 96 h): 0.12 nM; IC50 (GDP-loaded KRAS G12D): 4.4 nM; Mouse Parent AUC [1, 2]: 0.96 µM·h

Q: For `C#Cc1c(F)ccc2cc(O)cc(-c3nc4c5c(nc(OC[C@@]67CCCN6C[C@H](F)C7)nc5c3F)N3C[C@H]5CC[C@H](N5)[C@H]3CC[C@H]4C)c12` [Example 11-P, 5-ethynyl-6-fluoro-4-((4R,6aR,7S,10R)-1-fluoro-13-(((2R,7aS)-2-fluorotetrahydro-1H-pyrrolizin-7a(5H)-yl)methoxy)-4-methyl-5,6,6a,7,8,9,10,11-octahydro-4H-3,11a,12,14,15-pentaaza-7,10-methanocyclohepta[4,5]cycloocta[1,2,3-de]naphthalen-2-yl)naphthalen-2-ol], which EC50 (GP2D (KRAS G12D) cells; 96 h) is on record?
A: Its EC50 is 0.09 nM.

Q: What about the IC50 (GDP-loaded KRAS G12D) of the same molecule?
A: The IC50 was 0.09 nM.

Q: And the “Mouse Parent AUC” value [1, 2]?
A: Its value is 0.14 µM·h.

Q: Which results are given for `C#Cc1c(F)ccc2cc(O)cc(-c3nc4c5c(nc(OC[C@@]67CCCN6C[C@H](F)C7)nc5c3F)N3C[C@H]5CC[C@@H]([C@H]3CC[C@H]4C)N5Cc3oc(=O)oc3C(C)(C)C)c12` [Example 12, 4-(tert-butyl)-5-(((4R,6aR,7S,10R)-2-(8-ethynyl-7-fluoro-3-hydroxynaphthalen-1-yl)-1-fluoro-13-(((2R,7aS)-2-fluorotetrahydro-1H-pyrrolizin-7a(5H)-yl)methoxy)-4-methyl-5,6,6a,7,8,9,10,11-octahydro-4H-3,11a,12,14,15-pentaaza-7,10-methanocyclohepta[4,5]cycloocta[1,2,3-de]naphthalen-15-yl)methyl)-1,3-dioxol-2-one]?
A: EC50 (GP2D (KRAS G12D) cells; 96 h): 0.28 nM; IC50 (GDP-loaded KRAS G12D): 73 nM; Mouse Parent AUC [1, 2]: 0.2 µM·h

Q: For `C#Cc1c(F)ccc2cc(O)cc(-c3nc4c5c(nc(OC[C@@]67CCCN6C[C@H](F)C7)nc5c3F)N3C[C@H]5CC[C@@H]([C@H]3CC[C@H]4C)N5Cc3oc(=O)oc3CCCCCCCC)c12` [Example 13, 4-(((4R,6aR,7S,10R)-2-(8-ethynyl-7-fluoro-3-hydroxynaphthalen-1-yl)-1-fluoro-13-(((2R,7aS)-2-fluorotetrahydro-1H-pyrrolizin-7a(5H)-yl)methoxy)-4-methyl-5,6,6a,7,8,9,10,11-octahydro-4H-3,11a,12,14,15-pentaaza-7,10-methanocyclohepta[4,5]cycloocta[1,2,3-de]naphthalen-15-yl)methyl)-5-octyl-1,3-dioxol-2-one], which EC50 (GP2D (KRAS G12D) cells; 96 h) is on record?
A: Its EC50 is 0.19 nM.

Q: What about the IC50 (GDP-loaded KRAS G12D) of the same molecule?
A: Its IC50 is 24 nM.

Q: What about the “Mouse Parent AUC” value [1, 2] of the same molecule?
A: The value was 0.42 µM·h.

Q: With `C#Cc1c(F)ccc2cc(O)cc(-c3nc4c5c(nc(OC[C@@]67CCCN6C[C@H](F)C7)nc5c3F)N3C[C@H]5CC[C@@H]([C@H]3CCC4)N5Cc3oc(=O)oc3CCCCCC)c12` [Example 14, 4-(((6aR,7S,10R)-2-(8-ethynyl-7-fluoro-3-hydroxynaphthalen-1-yl)-1-fluoro-13-(((2R,7aS)-2-fluorotetrahydro-1H-pyrrolizin-7a(5H)-yl)methoxy)-5,6,6a,7,8,9,10,11-octahydro-4H-3,11a,12,14,15-pentaaza-7,10-methanocyclohepta[4,5]cycloocta[1,2,3-de]naphthalen-15-yl)methyl)-5-hexyl-1,3-dioxol-2-one] as the molecule, how does the EC50 (GP2D (KRAS G12D) cells; 96 h) read?
A: Its EC50 is 0.14 nM.

Q: And the IC50 (GDP-loaded KRAS G12D)?
A: Its IC50 is 7.3 nM.

Q: And the “Mouse Parent AUC” value [1, 2]?
A: The value was 0.94 µM·h.

Q: What does the source list for `C#Cc1c(F)ccc2cc(O)cc(-c3nc4c5c(nc(OC[C@@]67CCCN6C[C@H](F)C7)nc5c3F)N3C[C@H]5CC[C@@H]([C@H]3CCC4)N5Cc3oc(=O)oc3C3CCCCC3)c12` [Example 15, 4-cyclohexyl-5-(((6aR,7S,10R)-2-(8-ethynyl-7-fluoro-3-hydroxynaphthalen-1-yl)-1-fluoro-13-(((2R,7aS)-2-fluorotetrahydro-1H-pyrrolizin-7a(5H)-yl)methoxy)-5,6,6a,7,8,9,10,11-octahydro-4H-3,11a,12,14,15-pentaaza-7,10-methanocyclohepta[4,5]cycloocta[1,2,3-de]naphthalen-15-yl)methyl)-1,3-dioxol-2-one]?
A: EC50 (GP2D (KRAS G12D) cells; 96 h): 0.2 nM; IC50 (GDP-loaded KRAS G12D): 7.9 nM; Mouse Parent AUC [1, 2]: 0.25 µM·h
